The values below come from patent EP1184367A1, “AMIDE DERIVATIVES” (Sumitomo Pharmaceuticals Company, Limited, priority 1999, dated 2000).

This data set deals with constant white light-induced retinal damage.

Like-named read-outs stand apart in the source and are kept apart here.

Text: Male Wistar rats (7 weeks old, Charles River Japan Inc.) were purchased and maintained in cyclic light / dark environment (8:00-20:00 / light term) for one week, and then placed within the apparatus for constant white light exposure for two days. The constant white light exposure apparatus is a covered breeding box of 1020 mm in length, 425 mm in width, 520 mm in height, which is made of acryl boards and of which all inner side are covered with mirrors. Light was continuously irradiated all the day long (24 hours) using white fluorescent lamp attached to the ceiling of the apparatus. The average illuminance in the apparatus was 174.2 foot candle. After two days in the apparatus, the rats were moved to a darkroom and dark adapted for 1-4 hours. The rats were anesthetized with pentobarbital and placed in a stereotaxic frame. After topical mydriatica was given and electrodes were put on corneal surface, center of the forehead and the lower part of the lobe, the response in active potential of retina to the flash stimulation with fixed energy was determined from the recorded ERG (electroretinogram). The damage of retina was evaluated by the decrease in the amplitude of ERG a-wave which originated from retinal outer nuclear cells (photoreceptors). […]

Take `CC(C)(COC(=O)CCC(=O)O)NC(=O)c1ccc(F)cc1F` [Example 3, N-(2-(3-Carboxypropionyloxy)-1,1-dimethylethyl)-2,4-difluorobenzamide]: the “% recovery (Mean±S.E.M.)” value (rat, in vivo, po, 100 mg/kg) is reported as 14.0 ± 3.1%.

Take `CC(C)(COC(=O)CN)NC(=O)c1ccc(F)cc1F.O=S(=O)(O)c1ccccc1` [Example 4, N-(2-Glycyloxy-1,1-dimethylethyl)-2,4-difluorobenzamide benzenesulfonate]: for the setting “rats, 100 mg/kg orally administered in 0.5 % methylcellulose, just before constant light exposure and at the same time on the next day, two days of exposure, ERG a-wave amplitude relative to normal control and MC groups, five rats in a group”, the “% recovery (Mean±S.E.M.)” value is on record as 19.5 ± 3.3%.
